Reference: ChEMBL document CHEMBL5729561, “Compounds and uses thereof” (2023)
pIC50: −log10 of the molar value.

Experiment: On day 0 cells were seeded in 30 μL media into each well of 384-well cell culture plates. The seeding density was 8000 cells/well. On day 1, cells were treated with 30 nL DMSO or 30 nL of 3-fold serially DMSO-diluted compounds (10 points in duplicates with 1 μM as final top dose). Subsequently plates were incubated for 6 hours in a standard tissue culture incubator and equilibrated at room temperature for 15 minutes. Nanoluciferase activity was measured by adding 15 μL of freshly prepared Nano-Glo Luciferase Assay Reagent (Promega N1130), shaking the plates for 10 minutes and reading the bioluminescence using an EnVision reader.
Format: cell-based
COc1cc(-c2cn(C)c(=O)c3cnccc23)cc(OC)c1CN(C)C(=O)CCCCN1CCOC2(CCN(c3ccc4c(c3)C(=O)N(C3CCC(=O)NC3=O)C4=O)CC2)C1 (stereo not given) gave a pIC50 of over 8.00. COc1cc(-c2cn(C)c(=O)c3cnccc23)cc(OC)c1CN1CC(CC(=O)NCCCCCCCCNc2cccc3c2C(=O)N(C2CCC(=O)NC2=O)C3=O)C1 (stereo not given) gave a pIC50 of over 8.00. With COc1cc(-c2cn(C)c(=O)c3cnccc23)cc(OC)c1CN1CC(C(=O)NCCS(=O)(=O)CCNc2cccc3c2C(=O)N(C2CCC(=O)NC2=O)C3=O)C1 (stereo not given) the IC50 was “in the range around 55 nM”. In the case of COc1cc(-c2cn(C)c(=O)c3cnccc23)cc(OC)c1CN1CC(C(=O)N(C)CCCCCCCCNc2cccc3c2C(=O)N(C2CCC(=O)NC2=O)C3=O)C1 (stereo not given), the pIC50 was over 8.00. For COc1cc(-c2cn(C)c(=O)c3cnccc23)cc(OC)c1CNCCOCC(=O)N1CC(COc2ccc3c(c2)C(=O)N(C2CCC(=O)NC2=O)C3=O)C1 (stereo not given), the IC50 was “in the range around 550 nM”. Work on COc1cc(-c2cn(C)c(=O)c3cnccc23)cc(OC)c1CN(C)CC12CC(C(=O)NCCCCCNc3cccc4c3C(=O)N(C3CCC(=O)NC3=O)C4=O)(C1)C2 (stereo not given) yielded a pIC50 of over 8.00. With COc1cc(-c2cn(C)c(=O)c3cnccc23)cc(OC)c1CN(C)CC(=O)N1CCC(C2CCN(C(=O)COc3cccc4c3C(=O)N(C3CCC(=O)NC3=O)C4=O)CC2)CC1 (stereo not given) the IC50 was “in the range around 55 nM”. With COc1cc(-c2cn(C)c(=O)c3cnccc23)cc(OC)c1CN1CC[C@H]1C(=O)NCCCCCCCCNc1cccc2c1C(=O)N(C1CCC(=O)NC1=O)C2=O (stereo not given in full) the pIC50 was over 8.00. Work on COc1cc(-c2cn(C)c(=O)c3cnccc23)cc(OC)c1CN1CCN(C(=O)CCCCOc2cccc3c2C(=O)N(C2CCC(=O)NC2=O)C3=O)CC1 (stereo not given) yielded a pIC50 of over 8.00. In the case of COc1cc(-c2cn(C)c(=O)c3cnccc23)cc(OC)c1CN(C)CC12CC(C(=O)NCCOCCOCCNc3cccc4c3C(=O)N(C3CCC(=O)NC3=O)C4=O)(C1)C2 (stereo not given), the IC50 was “in the range around 550 nM”. For COc1cc(-c2cn(C)c(=O)c3cnccc23)cc(OC)c1CN1CC[C@H]1C(=O)NCCN(C)CCNc1cccc2c1C(=O)N(C1CCC(=O)NC1=O)C2=O (stereo not given in full), the IC50 was “in the range around 550 nM”. COc1cc(-c2cn(C)c(=O)c3cnccc23)cc(OC)c1CN1CC(S(=O)(=O)NCCCCCCCCNc2cccc3c2C(=O)N(C2CCC(=O)NC2=O)C3=O)C1 (stereo not given) showed a pIC50 of over 8.00. Work on COc1cc(-c2cn(C)c(=O)c3cnccc23)cc(OC)c1CN1CC(C(=O)NCCCCCCCCNc2cccc3c2C(=O)N(C2CCC(=O)NC2=O)C3=O)C1 (stereo not given) yielded a pIC50 of over 8.00. With COc1cc(-c2cn(C)c(=O)c3cnccc23)cc(OC)c1CN1CCC2(CC1)CN(C(=O)CCCCOc1cccc3c1C(=O)N(C1CCC(=O)NC1=O)C3=O)CCO2 (stereo not given) the pIC50 was over 8.00. For COc1cc(-c2cn(C)c(=O)c3cnccc23)cc(OC)c1CN(C)CCCOCCN1CCN(c2ccc3c(c2)C(=O)N(C2CCC(=O)NC2=O)C3=O)CC1 (stereo not given), the IC50 was “in the range around 55 nM”. COc1cc(-c2cn(C)c(=O)c3cnccc23)cc(OC)c1CN(C)NC(=O)CCCCC(=O)NC12CC(Nc3cccc4c3C(=O)N(C3CCC(=O)NC3=O)C4=O)(C1)C2 (stereo not given) showed a pIC50 of over 8.00. With COc1cc(-c2cn(C)c(=O)c3cnccc23)cc(OC)c1CN1CC(C)(C(=O)NCCCCCCCCNc2cccc3c2C(=O)N(C2CCC(=O)NC2=O)C3=O)C1 (stereo not given) the pIC50 was over 8.00. In the case of COc1cc(-c2cn(C)c(=O)c3cnccc23)cc(OC)c1CN(C)C12CC(C(=O)NCCOCCOCCNc3cccc4c3C(=O)N(C3CCC(=O)NC3=O)C4=O)(C1)C2 (stereo not given), the pIC50 was over 8.00. Compound COc1cc(-c2cn(C)c(=O)c3cnccc23)cc(OC)c1CN1CC[C@H]1C(=O)NCCN(C)CCNC(=O)COc1ccc2c(c1)C(=O)N(C1CCC(=O)NC1=O)C2=O (stereo not given in full) has a pIC50 of under 6.00. With COc1cc(-c2cn(C)c(=O)c3cnccc23)cc(OC)c1CN1CC2(C1)CN(C(=O)COc1cccc3c1C(=O)N(C1CCC(=O)NC1=O)C3=O)C2 (stereo not given) the IC50 was “in the range around 550 nM”. Compound COc1cc(-c2cn(C)c(=O)c3cnccc23)cc(OC)c1CN(C)CC12CC(NC(=O)CCCCOc3cccc4c3C(=O)N(C3CCC(=O)NC3=O)C4=O)(C1)C2 (stereo not given) has a pIC50 of over 8.00. In the case of COc1cc(-c2cn(C)c(=O)c3cnccc23)cc(OC)c1CN1CC(C(=O)NCCCCCCCCNc2cccc3c2C(=O)N(C2CCC(=O)N(C)C2=O)C3=O)C1 (stereo not given), the pIC50 was under 6.00. For COc1cc(-c2cn(C)c(=O)c3cnccc23)cc(OC)c1CN1CCN(C(=O)C2CC2CNC(=O)COc2cccc3c2C(=O)N(C2CCC(=O)NC2=O)C3=O)CC1 (stereo not given), the IC50 was “in the range around 550 nM”. In the case of COc1cc(-c2cn(C)c(=O)c3cnccc23)cc(OC)c1CNCCCN1CC(Oc2ccc3c(c2)C(=O)N(C2CCC(=O)NC2=O)C3=O)C1 (stereo not given), the IC50 was “in the range around 55 nM”. With COc1cc(-c2cn(C)c(=O)c3cnccc23)cc(OC)c1CN(C)CCCN1CCC(Oc2ccc3c(c2)C(=O)N(C2CCC(=O)NC2=O)C3=O)CC1 (stereo not given) the pIC50 was over 8.00. Work on COc1cc(-c2cn(C)c(=O)c3cnccc23)cc(OC)c1CN(C)CC(=O)NCCCCN1CCOC2(CCN(c3ccc4c(c3)C(=O)N(C3CCC(=O)NC3=O)C4=O)CC2)C1 (stereo not given) yielded a pIC50 of over 8.00. With COc1cc(-c2cn(C)c(=O)c3cnccc23)cc(OC)c1CN1CC[C@H]1CN(C)Cc1cccc2c1C(=O)N(C1CCC(=O)NC1=O)C2=O (stereo not given in full) the IC50 was “in the range around 55 nM”. COc1cc(-c2cn(C)c(=O)c3cnccc23)cc(OC)c1CN(C)C12CC(NC(=O)CCOCCOCCNc3cccc4c3C(=O)N(C3CCC(=O)NC3=O)C4=O)(C1)C2 (stereo not given) gave a pIC50 of over 8.00. In the case of COc1cc(-c2cn(C)c(=O)c3cnccc23)cc(OC)c1CN(C)Cc1cn(-c2ccc3c(c2)C(=O)N(C2CCC(=O)NC2=O)C3=O)nn1 (stereo not given), the IC50 was “in the range around 550 nM”. In the case of COc1cc(-c2cn(C)c(=O)c3cc(O)ccc23)cc(OC)c1CN1CCC2(CC1)CN(C(=O)CCCOc1cccc3c1C(=O)N(C1CCC(=O)NC1=O)C3=O)CCO2 (stereo not given), the IC50 was “in the range around 55 nM”. With COc1cc(-c2cn(C)c(=O)c3cnccc23)cc(OC)c1CN1CCCC(OCc2cn(CCCCOc3ccc4c(c3)C(=O)N(C3CCC(=O)NC3=O)C4=O)nn2)C1 (stereo not given) the IC50 was “in the range around 55 nM”. For COc1cc(-c2cn(C)c(=O)c3cnccc23)cc(OC)c1CN1CC(S(=O)(=O)NCCOCCOCCNc2cccc3c2C(=O)N(C2CCC(=O)NC2=O)C3=O)C1 (stereo not given), the pIC50 was over 8.00. For COc1cc(-c2cn(C)c(=O)c3cnccc23)cc(OC)c1CN1CC2(C1)CN(C(=O)CCCOc1cccc3c1C(=O)N(C1CCC(=O)NC1=O)C3=O)C2 (stereo not given), the IC50 was “in the range around 55 nM”. COc1cc(-c2cn(C)c(=O)c3cnccc23)cc(OC)c1CN(C)C12CC(NC(=O)CCCCCOc3cccc4c3C(=O)N(C3CCC(=O)NC3=O)C4=O)(C1)C2 (stereo not given) showed a pIC50 of over 8.00. COc1cc(-c2cn(C)c(=O)c3cnccc23)cc(OC)c1CN1CC(C(=O)N2CCC(C3CCN(C(=O)COc4cccc5c4C(=O)N(C4CCC(=O)NC4=O)C5=O)CC3)CC2)C1 (stereo not given) showed a pIC50 of over 8.00. In the case of COc1cc(-c2cn(C)c(=O)c3cnccc23)cc(OC)c1CN1CC(C(=O)NCCCCCCCCNC(=O)COc2cccc3c2C(=O)N(C2CCC(=O)NC2=O)C3=O)C1 (stereo not given), the IC50 was “in the range around 55 nM”. COc1cc(-c2cn(C)c(=O)c3cnccc23)cc(OC)c1CN1CC(C(=O)NCCCCCNc2cccc3c2C(=O)N(C2CCC(=O)NC2=O)C3=O)C1 (stereo not given) showed a pIC50 of over 8.00. For COc1cc(-c2cn(C)c(=O)c3cnccc23)cc(OC)c1CN1CC(OCc2cn(CCOc3ccc4c(c3)C(=O)N(C3CCC(=O)NC3=O)C4=O)nn2)C1 (stereo not given), the IC50 was “in the range around 55 nM”. For COc1cc(-c2cn(C)c(=O)c3cnccc23)cc(OC)c1CN1CC(NC(=O)CCCCCOc2cccc3c2C(=O)N(C2CCC(=O)NC2=O)C3=O)C1 (stereo not given), the IC50 was “in the range around 55 nM”. With COc1cc(-c2cn(C)c(=O)c3cnccc23)cc(OC)c1CN1CC(S(=O)(=O)NCCCCNc2ccc3c(c2)C(=O)N(C2CCC(=O)NC2=O)C3=O)C1 (stereo not given) the IC50 was “in the range around 55 nM”. In the case of COc1cc(-c2cn(C)c(=O)c3cnccc23)cc(OC)c1CN1CCN(C(=O)CCCOc2cccc3c2C(=O)N(C2CCC(=O)NC2=O)C3=O)CC1 (stereo not given), the pIC50 was over 8.00. With COc1cc(-c2cn(C)c(=O)c3cnccc23)cc(OC)c1CN1CCN(C(=O)C2CC2CNC(=O)COc2ccc3c(c2)C(=O)N(C2CCC(=O)NC2=O)C3=O)CC1 (stereo not given) the IC50 was “in the range around 550 nM”. In the case of COc1cc(-c2cn(C)c(=O)c3cnccc23)cc(OC)c1CN1CCC2(CC1)CN(C(=O)CCCOc1cccc3c1C(=O)N(C1CCC(=O)NC1=O)C3=O)CCO2 (stereo not given), the pIC50 was over 8.00. In the case of COc1cc(-c2cn(C)c(=O)c3cnccc23)cc(OC)c1CN1CC(S(=O)(=O)NCCCCCCNc2ccc3c(c2)C(=O)N(C2CCC(=O)NC2=O)C3=O)C1 (stereo not given), the pIC50 was over 8.00. In the case of COc1cc(-c2cn(C)c(=O)c3cnccc23)cc(OC)c1CN1CCC2(CC1)CN(C(=O)COc1cccc3c1C(=O)N(C1CCC(=O)NC1=O)C3=O)CCO2 (stereo not given), the IC50 was “in the range around 55 nM”. In the case of COc1cc(-c2cn(C)c(=O)c3cnccc23)cc(OC)c1CN1CC(S(=O)(=O)NCCCCCNc2ccc3c(c2)C(=O)N(C2CCC(=O)NC2=O)C3=O)C1 (stereo not given), the pIC50 was over 8.00. In the case of COc1cc(-c2cn(C)c(=O)c3cnccc23)cc(OC)c1CN(C)CC12CC(NC(=O)CCOCCOCCNc3cccc4c3C(=O)N(C3CCC(=O)NC3=O)C4=O)(C1)C2 (stereo not given), the IC50 was “in the range around 550 nM”. With COc1cc(-c2cn(C)c(=O)c3cnccc23)cc(OC)c1CN1CCN(CCCOc2ccc3c(c2)C(=O)N(C2CCC(=O)NC2=O)C3=O)CC1 (stereo not given) the pIC50 was over 8.00. In the case of COc1cc(-c2cn(C)c(=O)c3cnccc23)cc(OC)c1CN1CC2(C1)CN(C(=O)CCCCOc1cccc3c1C(=O)N(C1CCC(=O)NC1=O)C3=O)C2 (stereo not given), the pIC50 was over 8.00. COc1cc(-c2cn(C)c(=O)c3cnccc23)cc(OC)c1CN1CCN(C(=O)COc2cccc3c2C(=O)N(C2CCC(=O)NC2=O)C3=O)CC1 (stereo not given) gave a pIC50 of over 8.00. In the case of COc1cc(-c2cn(C)c(=O)c3cnccc23)cc(OC)c1CN1CC[C@@H]1C(=O)NCCCCCCCCNc1cccc2c1C(=O)N(C1CCC(=O)NC1=O)C2=O (stereo not given in full), the pIC50 was over 8.00. For COc1cc(-c2cn(C)c(=O)c3cnccc23)cc(OC)c1CN1CC(C(=O)NCCOCCOCCNc2cccc3c2C(=O)N(C2CCC(=O)NC2=O)C3=O)C1 (stereo not given), the IC50 was “in the range around 55 nM”. For COc1cc(-c2cn(C)c(=O)c3cnccc23)cc(OC)c1CN1CC(C(=O)N(C)CCCCCNc2cccc3c2C(=O)N(C2CCC(=O)NC2=O)C3=O)C1 (stereo not given), the pIC50 was over 8.00. For COc1cc(-c2cn(C)c(=O)c3cnccc23)cc(OC)c1CN(C)C12CC(C(=O)NCCCCCNc3cccc4c3C(=O)N(C3CCC(=O)NC3=O)C4=O)(C1)C2 (stereo not given), the pIC50 was over 8.00. In the case of COc1cc(-c2cn(C)c(=O)c3cnccc23)cc(OC)c1CN1CCC2(CC1)CN(C(=O)COc1ccc3c(c1)C(=O)N(C1CCC(=O)NC1=O)C3=O)CCO2 (stereo not given), the IC50 was “in the range around 550 nM”.
